The structures appear in SMILES notation.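 Protocol summary: plate cells (96-well), add compound at 5 concentrations, incubate 48 h, interpolate endpoints linearly. GI50 marks 50% less growth. TGI: total growth inhibition.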

Test systems include MDA-MB-435; UACC-62 melanoma; MDA-MB-231 breast; HCC-2998 colon; TK-10 renal; DU-145 prostate; SK-OV-3 ovarian; NCI-H460 lung; MALME-3M melanoma; OVCAR-4 ovarian.
Common to all, as to assay: DTP human tumour cell line panel, 48 h

`Cn1cc(C2=C(c3c[nH]c4ccccc34)C(=O)NC2=O)c2ccccc21`: the GI50 (as a rule, the concentration giving 50% growth inhibition) is 0.937 µM with MDA-MB-435; 1.59 µM in the assay on UACC-62 melanoma; 9.06 µM in the assay with MDA-MB-231 breast; 6.66 µM in the assay on HCC-2998 colon; 0.132 µM with TK-10 renal; 2.37 µM with DU-145 prostate. In addition, the GI50 is 1.08 µM with SK-OV-3 ovarian, 0.732 µM with NCI-H460 lung, 0.143 µM in the assay on MALME-3M melanoma and more than 5.06 µM in the assay on OVCAR-4 ovarian. Further, the TGI in the assay with MDA-MB-435, in the assay with UACC-62 melanoma, in the assay with MDA-MB-231 breast, in the assay with HCC-2998 colon, with TK-10 renal and in the assay with DU-145 prostate was more than 25 µM in each case. In addition, the TGI in the assay on SK-OV-3 ovarian, in the assay on NCI-H460 lung, in the assay with MALME-3M melanoma and in the assay on OVCAR-4 ovarian was more than 25 µM throughout.
As for `O=C(NCC(F)(F)F)Nc1cccc(-c2cnc3cc(-c4ccc(F)cc4)ccn23)c1`, the GI50 was 0.216 µM with MDA-MB-435; 2.44 µM in the assay on UACC-62 melanoma; 2.65 µM with MDA-MB-231 breast; 1.95 µM in the assay on HCC-2998 colon; 1.02 µM in the assay on TK-10 renal; 3.91 µM in the assay with DU-145 prostate. Also, the GI50 in the assay on SK-OV-3 ovarian is 1.96 µM; with NCI-H460 lung, 0.491 µM; with MALME-3M melanoma, 0.541 µM; in the assay with OVCAR-4 ovarian, 1.66 µM. For the same molecule, the TGI (as a rule, the concentration at which net growth stops) in the assay with MDA-MB-435 is 0.983 µM; with UACC-62 melanoma, more than 56.2 µM; with MDA-MB-231 breast it was more than 49.4 µM; with HCC-2998 colon, 49.4 µM; in the assay on TK-10 renal, 17.7 µM; in the assay on DU-145 prostate, more than 100 µM. For the same molecule, the TGI with SK-OV-3 ovarian was more than 54.2 µM; with NCI-H460 lung, more than 100 µM; with MALME-3M melanoma it was 46.2 µM; with OVCAR-4 ovarian it was more than 100 µM.
With `COC(=O)Nc1nc2ccccc2[nH]1`, the TGI with MDA-MB-435 was 8.05 µM; in the assay with UACC-62 melanoma, more than 100 µM; in the assay with MDA-MB-231 breast, more than 100 µM; in the assay with HCC-2998 colon, more than 100 µM; in the assay on TK-10 renal, more than 100 µM; in the assay on DU-145 prostate, more than 87 µM. Further, the TGI in the assay on SK-OV-3 ovarian was more than 31.5 µM; in the assay with NCI-H460 lung, more than 100 µM; in the assay on MALME-3M melanoma, more than 100 µM; in the assay on OVCAR-4 ovarian, more than 100 µM.
With `Cc1cc(N(CCOS(C)(=O)=O)CCOS(C)(=O)=O)ccc1C(=O)O`, the GI50 with MDA-MB-435, in the assay on UACC-62 melanoma, in the assay on MDA-MB-231 breast, in the assay on HCC-2998 colon, in the assay with TK-10 renal and in the assay with DU-145 prostate was more than 100 µM each time. The GI50 in the assay with SK-OV-3 ovarian is more than 100 µM; in the assay with NCI-H460 lung, 87.6 µM; in the assay on MALME-3M melanoma, more than 100 µM; with OVCAR-4 ovarian it was more than 100 µM. Further, the TGI with MDA-MB-435, in the assay with UACC-62 melanoma, with MDA-MB-231 breast, in the assay on HCC-2998 colon, in the assay on TK-10 renal and in the assay on DU-145 prostate was more than 100 µM in each case. Moreover, the TGI in the assay on SK-OV-3 ovarian, in the assay on NCI-H460 lung, in the assay with MALME-3M melanoma and in the assay on OVCAR-4 ovarian was more than 100 µM throughout.
For `O=C(CN(/C=C/C(=O)C(F)(F)F)c1ccc(Cl)cc1)c1ccc(Cl)c(Cl)c1`, the GI50 in the assay with MDA-MB-435 is 4.03 µM; in the assay with UACC-62 melanoma, 3.98 µM; in the assay on MDA-MB-231 breast it was 7.05 µM; in the assay on HCC-2998 colon, 12.6 µM; in the assay on TK-10 renal, 7.38 µM; in the assay with DU-145 prostate it was 16.7 µM. Further, the GI50 with SK-OV-3 ovarian was 17.1 µM; in the assay with NCI-H460 lung, 3.18 µM; in the assay with MALME-3M melanoma, 9.98 µM; in the assay on OVCAR-4 ovarian it was 8.71 µM. Also, the TGI in the assay with MDA-MB-435 stood at 13.5 µM; in the assay on UACC-62 melanoma it was 16.1 µM; in the assay on MDA-MB-231 breast, 20.9 µM; in the assay with HCC-2998 colon it was 26.2 µM; with TK-10 renal it was 20.1 µM; with DU-145 prostate, 33.4 µM. For the same molecule, the TGI in the assay with SK-OV-3 ovarian amounted to 35.2 µM; with NCI-H460 lung, 9.36 µM; in the assay with MALME-3M melanoma, 22.3 µM; in the assay on OVCAR-4 ovarian it was 28.1 µM.
Regarding `NC(=O)c1ccc(Oc2nccc(-c3c(-c4ccc(F)cc4)ncn3C3CCNCC3)n2)cc1`, the GI50 in the assay on MDA-MB-435, with UACC-62 melanoma, with MDA-MB-231 breast, in the assay with HCC-2998 colon, in the assay on TK-10 renal and in the assay on DU-145 prostate was more than 25 µM each time. The GI50 in the assay with SK-OV-3 ovarian, with NCI-H460 lung, with MALME-3M melanoma and in the assay on OVCAR-4 ovarian was more than 25 µM in each case. The TGI in the assay on MDA-MB-435, in the assay on UACC-62 melanoma, in the assay on MDA-MB-231 breast, in the assay with HCC-2998 colon, in the assay on TK-10 renal and in the assay with DU-145 prostate was more than 25 µM throughout. Further, the TGI with SK-OV-3 ovarian, with NCI-H460 lung, in the assay with MALME-3M melanoma and in the assay with OVCAR-4 ovarian was more than 25 µM throughout.
For `Cc1ccc(-c2nc(/C=N/Nc3cc(C)nc4ccc(Cl)cc34)c(C)o2)cc1`, the GI50 with MDA-MB-435 was 1.69 µM; in the assay with UACC-62 melanoma, 1.77 µM; in the assay on MDA-MB-231 breast, 1.81 µM; in the assay on HCC-2998 colon it was 2.07 µM; with TK-10 renal it was 1.8 µM; with DU-145 prostate, 2.49 µM. The GI50 in the assay with SK-OV-3 ovarian was 1.78 µM; in the assay with NCI-H460 lung, 1.93 µM; in the assay on MALME-3M melanoma it was 1.94 µM; in the assay with OVCAR-4 ovarian, 1.8 µM. Moreover, the TGI in the assay on MDA-MB-435 came to 3.25 µM; in the assay on UACC-62 melanoma it was 3.43 µM; in the assay on MDA-MB-231 breast, 3.48 µM; in the assay with HCC-2998 colon, 3.77 µM; in the assay with TK-10 renal, 3.32 µM; in the assay with DU-145 prostate, 6.67 µM. Moreover, the TGI with SK-OV-3 ovarian came to 3.21 µM; in the assay with NCI-H460 lung it was 3.79 µM; in the assay with MALME-3M melanoma it was 3.67 µM; in the assay on OVCAR-4 ovarian, 3.42 µM.
Turning to `O=C(NCCCc1cn[nH]c1)c1ccc(-c2ccncc2)c(C#Cc2ccc(F)cc2)c1`, the GI50 is less than 0.01 µM in the assay with MDA-MB-435; 16.5 µM with UACC-62 melanoma; 16.4 µM with MDA-MB-231 breast; 12.8 µM in the assay with TK-10 renal; less than 0.01 µM in the assay on DU-145 prostate; 8.96 µM in the assay with SK-OV-3 ovarian. Besides, the values for the GI50 in the assay on NCI-H460 lung, with MALME-3M melanoma and with OVCAR-4 ovarian were 0.145 µM, 10.2 µM and 11.6 µM, respectively. In addition, the TGI in the assay on MDA-MB-435 was more than 87.8 µM; with UACC-62 melanoma it was more than 70.1 µM; in the assay with MDA-MB-231 breast it was more than 100 µM; in the assay on HCC-2998 colon, 26.1 µM; in the assay with TK-10 renal, more than 100 µM; with DU-145 prostate, more than 100 µM. Further, the TGI with SK-OV-3 ovarian is more than 100 µM; with NCI-H460 lung, 41.9 µM; in the assay with MALME-3M melanoma it was 54.2 µM; in the assay with OVCAR-4 ovarian, more than 100 µM.
Regarding `C#C[C@@]1(O)[C@@H](CO)O[C@@H](n2cc(I)c3c(N)ncnc32)[C@@H]1O`, the GI50 was 0.473 µM in the assay with MDA-MB-435; 0.615 µM with UACC-62 melanoma; 0.185 µM in the assay with MDA-MB-231 breast; 0.243 µM with HCC-2998 colon; 0.551 µM in the assay with TK-10 renal; 0.127 µM with DU-145 prostate. The GI50 is 0.0343 µM in the assay with SK-OV-3 ovarian, 0.0895 µM in the assay on NCI-H460 lung, 0.826 µM with MALME-3M melanoma and 0.809 µM in the assay with OVCAR-4 ovarian. In addition, the TGI was 12.8 µM with MDA-MB-435; 2.78 µM in the assay with UACC-62 melanoma; more than 100 µM in the assay with MDA-MB-231 breast; 3.01 µM in the assay with HCC-2998 colon; 5.51 µM in the assay with TK-10 renal; more than 100 µM in the assay on DU-145 prostate. Further, the TGI was 0.729 µM in the assay on SK-OV-3 ovarian, 1.91 µM with NCI-H460 lung, 3.39 µM with MALME-3M melanoma and more than 100 µM with OVCAR-4 ovarian.
Consider `O=C(Nc1ccccc1I(=O)=O)C1CCCCC1`, for which the GI50 in the assay on MDA-MB-435, with UACC-62 melanoma, in the assay with MDA-MB-231 breast, in the assay on HCC-2998 colon, with TK-10 renal and in the assay on DU-145 prostate was more than 100 µM each time. Also, the GI50 in the assay on SK-OV-3 ovarian, in the assay on NCI-H460 lung, in the assay with MALME-3M melanoma and in the assay on OVCAR-4 ovarian was more than 100 µM throughout. For the same molecule, the TGI in the assay on MDA-MB-435, with UACC-62 melanoma, in the assay on MDA-MB-231 breast, in the assay with HCC-2998 colon, in the assay with TK-10 renal and with DU-145 prostate was more than 100 µM in each case. In addition, the TGI in the assay on SK-OV-3 ovarian, with NCI-H460 lung, in the assay on MALME-3M melanoma and with OVCAR-4 ovarian was more than 100 µM in each case.
For `Cc1c(C#N)cccc1[C@@H](C)Nc1nnc(C)c2cnc(N3CCOCC3)cc12`, the GI50 in the assay with MDA-MB-435 is 18.3 µM; in the assay on UACC-62 melanoma, 30.5 µM; in the assay on MDA-MB-231 breast it was 26.9 µM; in the assay on HCC-2998 colon, 53.9 µM; with TK-10 renal, 14.2 µM; with DU-145 prostate it was 27.7 µM. Moreover, the GI50 is 31.3 µM in the assay on SK-OV-3 ovarian, 27.7 µM in the assay with NCI-H460 lung, 21.4 µM with MALME-3M melanoma and 13.9 µM in the assay with OVCAR-4 ovarian. The TGI was 49.1 µM with MDA-MB-435; more than 100 µM in the assay with UACC-62 melanoma; more than 100 µM in the assay with MDA-MB-231 breast; more than 100 µM in the assay with HCC-2998 colon; more than 100 µM with TK-10 renal; more than 100 µM with DU-145 prostate. For the same molecule, the TGI with SK-OV-3 ovarian is more than 100 µM; with NCI-H460 lung it was more than 100 µM; with MALME-3M melanoma, 58.5 µM; in the assay on OVCAR-4 ovarian it was 61.8 µM.

For the origin of these results see PubChem BioAssay (NCI).
